From US20230279482A1, “COMPOSITIONS, METHODS AND USES FOR QUANTIFYING TRANSCRIPTION AND BIOSENSING OF SMALL MOLECULES USING A NOVEL TYPE VI CRISPR-CAS ASSAY” (THE REGENTS OF THE UNIVERSITY OF COLORADO, A BODY CORPORATE, priority 2020, published 2023)

Key:
[1] = tested on: crcB fluoride riboswitch; assay: SPRINT assay with fluoride riboswitch; assay type: biochemical, B. cereus
Description: SPRINT reactions. Pentauridine RNA oligonucleotides were labeled with carboxyfluorescein (FAM) or TEX 615 at the 5′-end and with Iowa Black FQ at the 3′-end. Fluorescence measurements were taken at wavelengths 490/525 nm (excitation/emission) when the FAM fluorophore was used. In reactions with flavin-containing ligands, TEX-labeled RNA oligos were used at the wavelengths 576/615 (excitation/emission). Fluorescence measurements were taken every 5 minutes.
For exemplary SPRINT assays, a master mix was first prepared and then mixed with the remaining reaction reagent components to yield a final reaction volume of 30 μL; fluorescent readings of the entire reaction volume were performed in Corning 384 Flat Bottom Black Polystyrol plates. This master mix (SPRINT buffer, 10×), for assays contemplated herein can include, but is not limited to: 700 mM Tris-HCl, pH 8.0, 700 mM NaCl, 1 mM EDTA, 140 mM β-mercaptoethanol, and 25 mM MgCl2. Aliquots of an exemplary 10× SPRINT buffer were stored at −20° C. and not allowed to undergo more than 10 freeze-thaw cycles.
The B. cereus crcB fluoride riboswitch is a regulatory switch that turns on expression of the fluoride efflux pump crcB via selectively binding fluoride over chloride. […] This may be explained in part by an observed inhibition of the assay at fluoride concentrations above 100 μM. […]

[2] = molecular target: crcB fluoride riboswitch; conditions: in-line probing; cited from earlier work

In the case of `[F-].[Na+]` [fluoride, sodium fluoride], the EC50 ([1]; FIG. 4C, read-out: T50 value) is listed as 11 ± 1 µM, the “fluoride concentration at which inhibition of the assay is observed” value ([1]; one-batch SPRINT) is listed as “above 100 μM” and the Kd [2] is listed as about 60 µM.
